Source: ChEMBL document CHEMBL4507298 (2021)

How the values were obtained:
[1] = target: T1, 5-hydroxytryptamine receptor 2C (Homo sapiens) (UniProt P28335); assay: 5-HT2C (h) CEREP ligand profiling; conditions: Compound concentration 10.0 uM
T1 sequence (whole entry): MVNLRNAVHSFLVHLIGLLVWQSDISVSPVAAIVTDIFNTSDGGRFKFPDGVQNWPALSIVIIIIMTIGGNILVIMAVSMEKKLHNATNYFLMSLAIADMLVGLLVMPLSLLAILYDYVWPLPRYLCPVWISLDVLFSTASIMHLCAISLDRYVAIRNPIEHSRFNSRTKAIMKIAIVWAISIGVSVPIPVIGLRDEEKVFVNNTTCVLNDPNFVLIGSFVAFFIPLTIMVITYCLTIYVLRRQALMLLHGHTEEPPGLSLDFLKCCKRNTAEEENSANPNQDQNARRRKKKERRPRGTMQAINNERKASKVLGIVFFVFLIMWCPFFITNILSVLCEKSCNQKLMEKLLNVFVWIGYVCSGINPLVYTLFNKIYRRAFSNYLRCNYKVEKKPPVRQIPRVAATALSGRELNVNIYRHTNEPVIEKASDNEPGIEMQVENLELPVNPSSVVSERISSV

[2] = target: cGMP-dependent 3',5'-cyclic phosphodiesterase (Homo sapiens) (UniProt O00408); assay: PDE2 (h) CEREP ligand profiling; conditions: Compound concentration 10.0 uM
[3] = target: Serine/threonine-protein kinase D2 (Homo sapiens) (UniProt Q9BZL6); conditions: Compound concentration 1000.0 nM
[4] = target: 5-hydroxytryptamine receptor 7 (Homo sapiens) (UniProt P34969); conditions: Compound concentration 10.0 uM
Sequence of 5-hydroxytryptamine receptor 7 (Homo sapiens) (P34969 whole entry): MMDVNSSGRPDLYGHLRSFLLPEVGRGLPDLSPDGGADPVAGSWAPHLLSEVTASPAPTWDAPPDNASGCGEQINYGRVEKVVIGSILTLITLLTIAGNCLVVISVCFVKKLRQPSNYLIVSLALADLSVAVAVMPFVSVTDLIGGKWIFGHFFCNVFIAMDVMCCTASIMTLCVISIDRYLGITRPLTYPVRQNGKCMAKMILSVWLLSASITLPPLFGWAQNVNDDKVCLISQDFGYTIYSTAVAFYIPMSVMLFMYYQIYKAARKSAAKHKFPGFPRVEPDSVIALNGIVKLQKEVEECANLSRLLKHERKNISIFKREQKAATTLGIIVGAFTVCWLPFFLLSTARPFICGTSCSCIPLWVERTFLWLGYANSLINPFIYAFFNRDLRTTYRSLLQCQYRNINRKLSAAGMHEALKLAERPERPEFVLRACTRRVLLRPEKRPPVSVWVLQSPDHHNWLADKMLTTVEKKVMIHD

Sequence of Serine/threonine-protein kinase D2 (Homo sapiens) (Q9BZL6 whole entry): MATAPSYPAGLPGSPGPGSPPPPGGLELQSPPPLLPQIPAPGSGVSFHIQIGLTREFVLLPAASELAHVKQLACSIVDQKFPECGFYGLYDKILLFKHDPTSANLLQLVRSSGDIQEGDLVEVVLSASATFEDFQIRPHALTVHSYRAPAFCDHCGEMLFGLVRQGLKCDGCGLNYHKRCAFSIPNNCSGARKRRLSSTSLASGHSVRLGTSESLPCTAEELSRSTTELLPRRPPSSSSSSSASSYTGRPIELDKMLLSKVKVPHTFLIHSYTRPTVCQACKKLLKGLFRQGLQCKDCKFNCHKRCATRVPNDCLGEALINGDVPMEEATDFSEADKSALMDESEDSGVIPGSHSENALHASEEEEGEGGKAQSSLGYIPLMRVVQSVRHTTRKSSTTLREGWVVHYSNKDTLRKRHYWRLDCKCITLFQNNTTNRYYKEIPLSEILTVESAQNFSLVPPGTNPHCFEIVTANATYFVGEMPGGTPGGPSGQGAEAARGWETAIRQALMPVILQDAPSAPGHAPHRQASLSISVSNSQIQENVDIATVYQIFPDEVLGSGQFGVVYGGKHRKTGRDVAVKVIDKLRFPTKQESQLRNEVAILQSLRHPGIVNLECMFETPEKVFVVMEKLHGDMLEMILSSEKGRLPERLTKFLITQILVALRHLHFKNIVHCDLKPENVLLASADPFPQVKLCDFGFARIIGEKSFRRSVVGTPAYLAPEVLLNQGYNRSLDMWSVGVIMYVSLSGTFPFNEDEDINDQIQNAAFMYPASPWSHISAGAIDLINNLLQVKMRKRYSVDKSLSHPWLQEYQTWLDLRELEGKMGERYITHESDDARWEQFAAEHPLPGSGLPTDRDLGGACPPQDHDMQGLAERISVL
Sequence of cGMP-dependent 3',5'-cyclic phosphodiesterase (Homo sapiens) (O00408 whole entry): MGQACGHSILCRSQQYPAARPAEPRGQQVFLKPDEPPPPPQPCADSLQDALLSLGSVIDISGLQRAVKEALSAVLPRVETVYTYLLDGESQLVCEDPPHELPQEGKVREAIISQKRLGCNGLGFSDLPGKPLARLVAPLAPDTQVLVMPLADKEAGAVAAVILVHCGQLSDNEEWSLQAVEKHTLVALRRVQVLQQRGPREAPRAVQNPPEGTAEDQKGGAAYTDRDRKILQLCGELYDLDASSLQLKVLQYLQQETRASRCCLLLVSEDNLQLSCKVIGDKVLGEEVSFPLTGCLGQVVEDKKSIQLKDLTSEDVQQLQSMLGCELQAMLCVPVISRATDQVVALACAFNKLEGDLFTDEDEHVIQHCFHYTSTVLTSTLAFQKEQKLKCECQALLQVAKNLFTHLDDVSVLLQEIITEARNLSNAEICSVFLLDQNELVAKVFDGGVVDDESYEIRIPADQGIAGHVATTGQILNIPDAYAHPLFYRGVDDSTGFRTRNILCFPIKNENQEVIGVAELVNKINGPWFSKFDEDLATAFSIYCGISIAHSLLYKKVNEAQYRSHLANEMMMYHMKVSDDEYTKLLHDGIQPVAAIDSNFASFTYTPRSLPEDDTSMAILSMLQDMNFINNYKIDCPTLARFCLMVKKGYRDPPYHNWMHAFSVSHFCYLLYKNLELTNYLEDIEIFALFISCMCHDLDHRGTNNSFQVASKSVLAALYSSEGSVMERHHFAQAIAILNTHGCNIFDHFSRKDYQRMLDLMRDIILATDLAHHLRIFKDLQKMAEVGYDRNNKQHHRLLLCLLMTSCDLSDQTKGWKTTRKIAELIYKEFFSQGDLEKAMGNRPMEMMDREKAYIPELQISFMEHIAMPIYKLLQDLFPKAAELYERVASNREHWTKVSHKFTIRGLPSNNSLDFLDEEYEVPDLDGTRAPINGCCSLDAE

COc1ccc2cc(OCC3(C(=O)O)CN(C(=O)c4ccc(F)cc4)C3)ccc2c1 [PF-04418948]
inactive: inhibition [1] 8% | inhibition [2] 5% | residual activity [3] 93% | inhibition [4] -9.26%
